The source of these data is PMC7048932, “Examining sterically demanding lysine analogs for histone lysine methyltransferase catalysis” (Scientific Reports, 2020).

For experiment [1], the system named is SETD7. Put plainly: MALDI-TOF MS methylation assay of H3K4 peptides with SETD7. The format is biochemical, human. To be noted: peptide 100 µM, SETD7 2 µM, SAM 200 µM, 1 h, 37 °C. The method, then: (§1) MALDI-MS methyltransferases activity experiments were performed using a Bruker instrument in the reflectron positive mode. For regular methyltransferase standard conditions experiment which carried out in 30 µL total volume, the mixture contains peptide (100 µM), SAM (200 µM), SETD8 or SETD7 (2 µM), in assay buffer 50 mM Tris at optimal pH 8.0. In case of G9a and GLP, similar conditions were used, except (500 µM) of SAM was added to the reaction mixture. Samples were incubated in an Eppendorf vial 1.5 mL using thermomixer for 1 h at 37 °C. A 5 µL aliquot of the solution was mixed with 5 µL of MeOH, after which 5 µL of this mixture was mixed with 5 µL of α-cyano-4-hydroxycinamic acid matrix (CHCA, 5 mg/mL in 125:125 µL acetonitrile/water). The spots were placed on a stainless steel MALDI plate (MS 96 target ground steel BC of Bruker, Germany). The mass corresponding to one monomethylation observed as +14 Da, dimethylation observed as +28 Da and trimethylation observed as +42 Da. The enzymatic activity was determined by taking the peak areas of each methylation state, including all isotopes and adducts, and was annotated using FlexAnalysis software (Bruker Daltonics, Germany). […] Methylated peptide substrates were repeated five times and the unmethylated substrates were triplicated. Sequences of the examined peptides are given in (Supplementary Table 1).

In experiment [2] the test system is SETD7. The experiment is described as follows: Inhibition study of SETD7 (MALDI-TOF MS). Format: biochemical, human. To be noted: peptide 100 µM, SETD7 100 nM, SAM 20 µM, 21-mer H3 peptide 5 µM, 30 min, 37 °C. The method, then:
A mixture of histone peptide (0–100 µM final conc.) and SETD7, G9a or GLP (100 nM final conc.) was preincubated for 5 minutes at 37 °C in 18 µL of 50 mM glycine pH 8.8 containing 2.5% glycerol as assay buffer. Then 2 µL of a pre-mixture of SAM (20 µM final conc.) and 21-mer H3 histone peptide (residues 1–21, 5 µM final conc.) was added to afford a final assay mixture (20 µL) and the enzymatic reaction was incubated for an additional 30 minutes at 37 °C before quenching with 20 μL of MeOH. The quenched reaction (1 μL) was mixed with a solution of saturated α-cyano-4-hydroxycinnamic acid (5 μL) and spotted on the MALDI plate for crystallisation. The enzymatic activity was determined by taking the peak areas of each methylation state (including all isotopes and adducts) and is expressed relative to a control reaction in the absence of unnatural histone peptides. Each inhibition experiment was carried out in replicate.

The target in experiment [3] is T1, SETD8 (Homo sapiens, UniProt Q9NQR1).
T1 construct: His6 (N); made in house; host or cells: E. coli BL21 (DE3)pLysS-rosetta
T1 sequence (Q9NQR1 1-393): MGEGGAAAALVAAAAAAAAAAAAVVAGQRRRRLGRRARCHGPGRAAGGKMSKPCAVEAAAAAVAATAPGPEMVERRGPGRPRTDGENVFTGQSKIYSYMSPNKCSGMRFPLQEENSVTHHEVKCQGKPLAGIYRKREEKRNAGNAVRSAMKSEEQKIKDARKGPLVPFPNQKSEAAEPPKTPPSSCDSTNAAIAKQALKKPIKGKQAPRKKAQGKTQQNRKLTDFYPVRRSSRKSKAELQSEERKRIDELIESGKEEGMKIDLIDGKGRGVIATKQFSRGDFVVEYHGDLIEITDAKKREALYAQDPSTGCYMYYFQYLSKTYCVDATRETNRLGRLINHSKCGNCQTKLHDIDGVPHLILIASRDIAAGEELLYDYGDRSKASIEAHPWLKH
The experiment is described as follows: MALDI-TOF MS methylation assay of H4K20 peptides with SETD8. To be noted: peptide 100 µM, 37 °C; for SETD8-catalyzed methylation, result in words, increased SETD8/SAM and prolonged incubation: SETD8 10 µM, SAM 1 mM, 1 h and 5 h, MALDI-MS. Format: biochemical. The method, then: as §1, with “For regular methyltransferase standard conditions experiment which carried out in 30 µL total volume, the mixture contains peptide (100 µM), SAM (200 µM), SETD8 or SETD7 (2 µM), in assay buffer 50 mM Tris at optimal pH 8.0.” left out

Experiment [4] has as its target T1, SETD8. The experiment is described as follows: Enzyme kinetics of SETD8-catalyzed methylation (MALDI-TOF MS). The format is biochemical. To be noted: MALDI-TOF MS assay. The method, then:
To establish the substrate efficiency of lysine- and KCP-containing histone peptides, we carried out enzyme kinetics analysis, employing the MALDI-TOF MS assays. Both enzymes preferentially catalyze methylation of natural histone sequences, however, bulkier KCP-containing peptides still underwent favorable kinetics profiles (Table 1 and Supplementary Fig. 30).
as §1

The target in experiment [5] is T1, SETD8. The experiment is described as follows: Competition study between H4K20 and analog peptides with SETD8 (MALDI-MS). Format: biochemical. To be noted: SETD8, equimolar H4K20 (100 µM) and H4KCP20 (100 µM), SAM 200 µM, 1 h, 37 °C. From the text:
Next, we carried out competition studies between histone peptides that bear lysine and its analogs. In the presence of SETD8, SAM and equimolar amounts of H4K20 and H4KCP20, we observed the formation of both monomethylated products, albeit a comparatively larger degree of monomethylation of H4K20 was found (70% of H4K20me, 40% of H4KCP20me). […] It is also possible that subtle differences in sterics and electronics of H4KCP20 when compared to H4K20 do contribute to observed differences in the degree of methylation in the competition experiment.
Figure S31. MALDI-MS based assay showing ( a) SETD8-catalyzed monomethylation of […]
(b) SETD8-catalyzed methylation of H4K20 (100 µM) in the presence of H4F 3a20 (100 µM) and SAM (200 µM) after 1 h at 37 °C; ( c) SETD8-catalyzed methylation of H4K20 (100 µM) in the presence of H4F 4a20 (100 µM) and SAM (200 µM) after 1 h at 37 °C; ( d) SETD8-catalyzed methylation of H4K20 (100 µM) in the presence of H4A p20 (100 µM) and SAM (200 µM) after 1 h at 37 °C; ( e) SETD8-catalyzed methylation of H4K20 (100 µM) in the presence of […]
(1 picture or pasted object on this page, not shown here)

The mark [6] stands for this setting: SETD8 2 µM, SAM 200 µM, 50 mM Tris pH 8.0, 1 h, MALDI-TOF MS.

On to “ART(F4a4)QTARKSTGGKA [H3F4a4, H3K4 peptide bearing para-aminophenylalanine at position 4]”, for which, in the experiment with SETD7 [1], the “SETD7-catalyzed methylation, result in words” value is on record as “lack of methylation”. In the experiment with SETD7 [2], the “inhibition of SETD7 at 100 µM peptide” value was 11%.
As to “GGAKRHR(Kcp20)VLRDNIQ [H4KCP20, H4K20 peptide bearing cyclopropyllysine at position 20]”, at SETD8 [3] (setting [6]), the “SETD8-catalyzed methylation, result in words” value is given as “methylation” and the “monomethylated product formed (H4KCP20me)” value was 60%. In addition, at SETD8 [3], the “SETD8-catalyzed methylation, result in words, increased SETD8/SAM and prolonged incubation” value was “almost complete formation of the monomethylated H4KCP20me product”. In addition, the “SETD8-catalyzed methylation, result in words, increased SETD8/SAM and prolonged incubation” value at SETD8 [3] (listed as H4K CP20) is on record as “predominant monomethylation”. For the same substance, at SETD8 [4], the Michaelis-Menten constant (Km) turned out to be 172 ± 37 µM, the turnover number (kcat) was found to be 0.0113 ± 0.0013 s⁻¹ and the kcat/KM came to 66 M⁻¹ s⁻¹. In addition, the “monomethylated product formed in competition experiment” value on SETD8 [5] is listed as 40%.
